Source: patent publication US6350780B1, “Methods and compositions for drug delivery” (Allergan Sales, Inc., priority 1995, dated 2002)

Columns and labels:
[1] = test system: cultured human non-pigmented ciliary epithelial (NPE) cells; assay: regulatory volume decrease (RVD) following hyposmotic swelling of cultured NPE cells; format: cell-based; conditions: 20 µM BAPTA-AM loaded 30 minutes in isosmotic (290 mOsm) solution, then hyposmotic (198 mOsm) solution; cell volume by Coulter Counter; FIG. 1
Description: In this example, NPE cells were loaded in an isosmotic (290 mOsm) solution containing 20 µM BAPTA-AM for 30 minutes prior to suspension in a hyposmotoic (198 mOsm) solution. Control cells were subjected to the same hyposmotic solution but without prior loading with BAPTA. Changes in cell volume were measured using a Coulter Counter interfaced to a Coulter Channelyzer. It is noted that, following osmotic swelling, control cells regulate towards their original isosmotic volume while BAPTA-loaded cells remain swollen. The above findings indicate that intracellular BAPTA via chelation of Ca^2+i inhibits solute and osmotically obliged H2O efflux. Because the Ca^2+i-dependent ion flux pathways activated following osmotic cell swelling of NPE cells are involved in aqueous secretion, BAPTA will inhibit aqueous humor formation and, thus, lower IOP.

[2] = test system: eye of a mammal suffering high intraocular pressure; assay: intraocular pressure after instillation into the eye of a mammal suffering high intraocular pressure; format: in vivo; conditions: topical instillation in ophthalmically acceptable carrier; mammal with high intraocular pressure
Description: This compound comprises the calcium chelator BAPTA blocked with three acetoxymethyl ester (AM) moieties, and containing a single N-linked pACE group in place. The compound is dissolved in an ophthalmically acceptable carrier for topical delivery to the eye. As indicated above, such prodrug-pACE compounds are specifically targeted to cilliary epithelial and retinal cells, without substiantially affecting other cell types. In the above formulation, based on Formula B, the compound will bind acetylcholine receptors and cell surface acetylcholinesterase without being hydrolyzed thereby. The electronically neutral prodrug is then transported or permitted to penetrate the cell membrane, where cytoplasmic esterases convert the prodrug-pACE into the tetraacetic acid form of BAPTA capable of modulating the intracellular concentration of free Ca^++, thereby providing a neuroprotective function.
The compound is instilled into the eye of a mammal suffering high intraocular pressure. The prodrug-pACE compound passes through the cornea and the drug is concentrated within ciliary epithelial and retinal ganglion cells.

With `CC(=O)OCOC(=O)CN(CC(=O)OCOC(C)=O)c1ccccc1OCCOc1ccccc1N(CC(=O)OCOC(C)=O)CC(=O)OCOC(C)=O` [BAPTA-AM, acetoxymethyl ester of BAPTA] the “effect on regulatory volume decrease (RVD)” value [1] was “totally depress”.

With `CC(=O)OCOC(=O)CN(CC(=O)OCOC(C)=O)c1ccccc1OCCOc1ccccc1N(CC(=O)OCOC(C)=O)CC(=O)OCOC(=O)CCC(=O)C(C)(C)C` [Example 2] the “intraocular pressure following treatment versus prior to treatment” value [2] was “significantly lower”.
